Measurements reported in US8022091B2, “Triazole derivative” (Taisho Pharmaceutical Co., Ltd., priority 2006, dated 2011).

biological target: T1, human Edg-1 (S1P1) (Homo sapiens, UniProt P21453); assay: S1P1 binding assay: inhibition of [33P]-S1P binding to membrane fraction of HEK-293 cells transferred with the human Edg-1 (S1P1) gene; conditions: test compound at 10 μM; inhibition of [33P]-S1P binding to the membrane fraction of HEK-293 cells expressing human Edg-1 (S1P1)
T1 construct: expressed in transfected cells; host or cells: HEK-293
Procedure: The membrane fraction was obtained by treating the cells with a solubilizing buffer (1 mM Tris/HCl, pH 7.2) for 10 minutes on ice, centrifuging at 1000×g for 5 minutes to remove insoluble fractions, and then centrifuging at 40000×g for 30 minutes at 4° C. The resulting membrane fraction was dissolved in a binding buffer (20 mM Tris-HCl, pH 7.4, 100 mM NaCl, 15 mM NaF, 2 mM deoxypyridoxine, 4 mg/mL fatty acid-free BSA), and then [^33P]-S1P (manufactured by ARC, final concentration 0.1 nM) and a DMSO solution (final concentration of the compound 10^−5M, final concentration of DMSO 0.1%) of the test compound were added. Thereafter, the mixture was stirred and then treated for one hour at 30° C. Using a harvester, the membrane fraction was harvested onto unifilter-96 GF/C filter (manufactured by Perkin Elmer), washing was carried out four times with the binding buffer, and the filter was dried. Twenty five μL Microscint 0 (manufactured by Perkin Elmer) was added, and radioactivity was measured using Top Count NXT (manufactured by Packard) to calculate the amount (A) of [^33P]-S1P bound to the membrane fraction at the time when the compound was added.
The same procedure was carried out in the absence of the test compound, and the amount (B) of [^33P]-S1P bound was calculated. Further, the same procedure was carried out in the absence of the test compound by use of HEK-293 cells to which no Edg-1 (S1P1) gene was introduced, and the background amount (C) of [^33P]-S1P bound was calculated.
Inhibition rate (%)=[1−(A−C)/(B−C)]×100
Further, concentrations (IC50) at the time when binding in the absence of the test compound was inhibited by 50% were calculated. The membrane system binding assay was carried out in the presence of test compounds with various concentrations, and the Edg-1 (S1P1) binding inhibition rates were calculated using the equation above. Then, IC50 values were calculated using Origin (Lightstone Corp.), a software for data analysis.

T1 sequence (P21453 whole entry): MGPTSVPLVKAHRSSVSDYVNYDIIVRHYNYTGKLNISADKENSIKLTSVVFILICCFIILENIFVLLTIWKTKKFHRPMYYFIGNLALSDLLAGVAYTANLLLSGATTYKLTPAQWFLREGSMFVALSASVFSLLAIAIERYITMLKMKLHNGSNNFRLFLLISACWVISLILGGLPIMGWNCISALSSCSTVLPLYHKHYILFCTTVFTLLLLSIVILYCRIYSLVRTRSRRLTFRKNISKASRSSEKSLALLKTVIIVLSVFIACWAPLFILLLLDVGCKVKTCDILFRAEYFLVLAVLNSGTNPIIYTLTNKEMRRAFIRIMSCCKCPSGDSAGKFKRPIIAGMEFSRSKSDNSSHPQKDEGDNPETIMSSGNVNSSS

| Compound | inhibition at 10 µM [%] |
| --- | --- |
| CCn1c(Oc2ccc(F)cc2)nnc1[C@@H](C)NS(=O)(=O)c1ccc(F)c2ccccc12 [Compound 307] | 94.4 |
| CCc1ccc(OC)c(S(=O)(=O)N[C@H](C)c2nnc(Oc3ccc(F)cc3)n2CC)c1 [Compound 311] | 76.5 |
| CCn1c(Oc2ccc(F)cc2)nnc1[C@@H](C)NS(=O)(=O)c1ccc(Cl)c(S(N)(=O)=O)c1 [Compound 314] | 52.2 |
| CCn1c(Oc2ccc(F)cc2)nnc1[C@@H](C)NS(=O)(=O)c1ccc(Br)c(C(F)(F)F)c1 [Compound 318] | 78.9 |
| CCn1c(Oc2ccc(F)cc2)nnc1[C@@H](C)NS(=O)(=O)c1cc(Br)cc(C(F)(F)F)c1 [Compound 319] | 61.7 |
| CCn1c(Oc2ccc(F)cc2)nnc1[C@@H](C)NS(=O)(=O)c1cc2ccccc2s1 [Compound 323] | 77.9 |
| CCn1c(Cc2ccc(F)cc2)nnc1[C@@H](C)NS(=O)(=O)c1csc2ccccc12 [Compound 324] | 81.8 |
| CCn1c(Oc2ccc3cc[nH]c3c2)nnc1[C@@H](C)NS(=O)(=O)c1ccc(C(C)=O)cc1 [Compound 327] | 92.3 |
| CCn1c(Oc2ccc3cc[nH]c3c2)nnc1[C@@H](C)NS(=O)(=O)c1ccccc1 [Compound 328] | 85.2 |
| CCn1c(Oc2ccc3cc[nH]c3c2)nnc1[C@@H](C)NS(=O)(=O)c1ccc(Br)cc1 [Compound 329] | 101 |
| CCn1c(Oc2ccc3cc[nH]c3c2)nnc1[C@@H](C)NS(=O)(=O)c1ccc(C(C)(C)C)cc1 [Compound 330] | 81.6 |
| CCn1c(Oc2ccc3cc[nH]c3c2)nnc1[C@@H](C)NS(=O)(=O)c1ccccc1Br [Compound 331] | 59.8 |
| CCn1c(Oc2ccc3cc[nH]c3c2)nnc1[C@@H](C)NS(=O)(=O)c1cccc(Br)c1 [Compound 333] | 102 |
| CCn1c(Oc2ccc3cc[nH]c3c2)nnc1[C@@H](C)NS(=O)(=O)c1ccc(Cl)cc1 [Compound 335] | 106 |
| CCn1c(Oc2ccc3cc[nH]c3c2)nnc1[C@@H](C)NS(=O)(=O)c1ccccc1C#N [Compound 336] | 56.8 |
| CCn1c(Oc2ccc3cc[nH]c3c2)nnc1[C@@H](C)NS(=O)(=O)c1cccc(C#N)c1 [Compound 338] | 69.2 |
| CCn1c(Oc2ccc3cc[nH]c3c2)nnc1[C@@H](C)NS(=O)(=O)c1sc2ccc(Cl)cc2c1C [Compound 339] | 62.8 |
| CCn1c(Oc2ccc3cc[nH]c3c2)nnc1[C@@H](C)NS(=O)(=O)c1cc(C)c(Cl)cc1C [Compound 340] | 100 |
| CCn1c(Oc2ccc3cc[nH]c3c2)nnc1[C@@H](C)NS(=O)(=O)c1cc(Cl)ccc1Cl [Compound 341] | 92.8 |
| CCn1c(Oc2ccc3cc[nH]c3c2)nnc1[C@@H](C)NS(=O)(=O)c1c(Cl)cccc1Cl [Compound 342] | 53.6 |
| CCn1c(Oc2ccc3cc[nH]c3c2)nnc1[C@@H](C)NS(=O)(=O)c1ccc(OC)c(OC)c1 [Compound 343] | 86.5 |
| CCc1ccc(S(=O)(=O)N[C@H](C)c2nnc(Oc3ccc4cc[nH]c4c3)n2CC)cc1 [Compound 345] | 90.4 |
| CCn1c(Oc2ccc3cc[nH]c3c2)nnc1[C@@H](C)NS(=O)(=O)c1ccc(F)cc1 [Compound 346] | 89.2 |
| CCn1c(Oc2ccc3cc[nH]c3c2)nnc1[C@@H](C)NS(=O)(=O)c1c(C)cc(C)cc1C [Compound 347] | 50.1 |
| CCn1c(Oc2ccc3cc[nH]c3c2)nnc1[C@@H](C)NS(=O)(=O)c1ccc(OC)cc1 [Compound 348] | 109 |

| Compound | inhibition at 10 µM [%] |
| --- | --- |
| CCn1c(Oc2ccc3cc[nH]c3c2)nnc1[C@@H](C)NS(=O)(=O)c1ccc(S(C)(=O)=O)cc1 [Compound 350] | 75 |
| CCn1c(Oc2ccc3cc[nH]c3c2)nnc1[C@@H](C)NS(=O)(=O)c1cccc2ccccc12 [Compound 352] | 88.5 |
| CCn1c(Oc2ccc3cc[nH]c3c2)nnc1[C@@H](C)NS(=O)(=O)CCc1cccc2ccccc12 [Compound 353] | 92.3 |
| CCn1c(Oc2ccc3cc[nH]c3c2)nnc1[C@@H](C)NS(=O)(=O)c1ccc(I)cc1 [Compound 355] | 98.8 |
| CCn1c(Oc2ccc3cc[nH]c3c2)nnc1[C@@H](C)NS(=O)(=O)/C=C/c1ccccc1 [Compound 356] | 95.6 |
| CCn1c(Oc2ccc3cc[nH]c3c2)nnc1[C@@H](C)NS(=O)(=O)c1cc(Cl)c(Cl)cc1Cl [Compound 357] | 106 |
| CCn1c(Oc2ccc3cc[nH]c3c2)nnc1[C@@H](C)NS(=O)(=O)c1ccc(C)cc1 [Compound 359] | 95.7 |
| CCn1c(Oc2ccc3cc[nH]c3c2)nnc1[C@@H](C)NS(=O)(=O)c1ccccc1C [Compound 361] | 96.9 |
| CCn1c(Oc2ccc3cc[nH]c3c2)nnc1[C@@H](C)NS(=O)(=O)c1ccc(OC(F)(F)F)cc1 [Compound 362] | 95.1 |
| C=Cc1ccc(S(=O)(=O)N[C@H](C)c2nnc(Oc3ccc4cc[nH]c4c3)n2CC)cc1 [Compound 363] | 96.2 |
| CCn1c(Oc2ccc3cc[nH]c3c2)nnc1[C@@H](C)NS(=O)(=O)c1cccc(C)c1 [Compound 364] | 87.5 |
| CCn1c(Oc2ccc3cc[nH]c3c2)nnc1[C@@H](C)NS(=O)(=O)c1ccc2c(c1)CN(C(=O)C(F)(F)F)CC2 [Compound 366] | 63.2 |
| CCn1c(Oc2ccc3cc[nH]c3c2)nnc1[C@@H](C)NS(=O)(=O)c1cc(C)ccc1C [Compound 367] | 94.3 |
| CCn1c(Oc2ccc3cc[nH]c3c2)nnc1[C@@H](C)NS(=O)(=O)c1ccc(-c2csnn2)s1 [Compound 368] | 60.5 |
| CCn1c(Oc2ccc3cc[nH]c3c2)nnc1[C@@H](C)NS(=O)(=O)c1ccc(C(=O)OC)n1C [Compound 372] | 106 |
| CCCc1ccc(S(=O)(=O)N[C@H](C)c2nnc(Oc3ccc4cc[nH]c4c3)n2CC)cc1 [Compound 377] | 73.9 |
| CCn1c(Oc2ccc3cc[nH]c3c2)nnc1[C@@H](C)NS(=O)(=O)c1c(C)c(C)cc(C)c1C [Compound 378] | 71.6 |
| CCn1c(Oc2ccc3cc[nH]c3c2)nnc1[C@@H](C)NS(=O)(=O)c1cccc(Cl)c1Cl [Compound 379] | 89.2 |
| CCn1c(Oc2ccc3cc[nH]c3c2)nnc1[C@@H](C)NS(=O)(=O)c1cc(C(F)(F)F)cc(C(F)(F)F)c1 [Compound 382] | 66.9 |
| CCn1c(Oc2ccc3cc[nH]c3c2)nnc1[C@@H](C)NS(=O)(=O)c1cc(Cl)cc(Cl)c1 [Compound 383] | 83.6 |
| CCn1c(Oc2ccc3cc[nH]c3c2)nnc1[C@@H](C)NS(=O)(=O)c1cccc(Cl)c1C [Compound 384] | 88.1 |
| CCn1c(Oc2ccc3cc[nH]c3c2)nnc1[C@@H](C)NS(=O)(=O)c1ccc(F)c(Cl)c1 [Compound 385] | 98 |
| CCn1c(Oc2ccc3cc[nH]c3c2)nnc1[C@@H](C)NS(=O)(=O)c1cccc(OC)c1 [Compound 386] | 84 |
| CCn1c(Oc2ccc3cc[nH]c3c2)nnc1[C@@H](C)NS(=O)(=O)c1cc(F)c(Br)cc1F [Compound 387] | 63.5 |
| CCn1c(Oc2ccc3cc[nH]c3c2)nnc1[C@@H](C)NS(=O)(=O)c1c(C)cc(OC)c(C)c1C [Compound 388] | 65.8 |
